Data taken from patent publication US4118482A (priority 1977, dated 1978).
Read-outs that look alike come from different tables or passages of the source. Numbered stars: 1 amine (or outer) side, 2 acyl side, 3 side chain; on linkers, the order of the positions; unused ones are H or OH. Bridge positions count the residues as written; N and C are the ends. Square brackets hold non-standard residues; d marks the D form. Peptide text beside a SMILES is read from it. I, II: the chains in the order shown. Actinocin(9to1) = Cc1c2oc3c(C)ccc(C(=O)[*:1])c3nc-2c(C(=O)[*:2])c(N)c1=O; NMeV = CN[CH](C(=O)O)C(C)C; Aze = O=C(O)[CH]1CCN1; Sar = CNCC(=O)O

Assays:
[1] = test system: advanced Ridgeway osteogenic sarcoma; conditions: cited from earlier work
[2] = test system: Rous sarcoma virus; assay: Development of visible tumors in chicks infected with Rous sarcoma virus, single injection; format: in vivo; conditions: injected once; compared with untreated or saline injected controls
Experimental: In another test, both Azetomicin I and Azetomicin II, were injected once into chicks infected with Rous sarcoma virus. The development of visible tumors was decreased by over 80% as compared with untreated or saline injected controls.

[3] = test system: ADVANCED P388 LEUKEMIA; assay: Advanced P388 leukemia in mice, treatment Q4D x 3 at days 5, 9, 13; format: in vivo; conditions: 0.6 Mg/Kg/Inj., Q4D x 3 days 5, 9, 13, advanced P388; for SURVIAL TIME MEDIAN: controls 10 days
Excerpt: (§1) The National Cancer Institute conducted a screening test on samples of both Azetomicin I (3' prolyl, 3' azet) and Azetomicin II (3', 3' azet) as well as on Dactinomycin (3', 3' prolyl) that is also known as Actinomycin D or C1. The Azetomicin and Dactinomycin molecules are identical, with the exception of the 3' amino acid position on the peptides, wherein the 3' positions, in the case of Dactinomycin are both prolyl; in the case of the Azetomicin I are prolyl and azetidine-2-carboxyl; and in the cae of Azetomicin II are both azetidine-2-carboxyl.
ADVANCED P388 LEUKEMIA : Q4D × 3 AT DAYS 5, 9, 13 TREATMENT

[4] = test system: Bacillus subtilis, Staphylococcus aureus and Staphylococcus albus; assay: Inhibition of bacterial growth (cross section of gram-positive and gram-negative bacteria); format: cell-based
[5] = Storage stability in aqueous solution; format: physicochemical; conditions: 0°-25° C, pH range of 5-8, maintained in the dark
Experimental: The major products of interest were determined to be Azetomicin I and Azetomycin II. They were stable after storage at 0°-25° C in aqueous solution in the pH range of 5-8 for at least 5 days when maintained in the dark.

[6] = test system: P388 leukemia; assay: P388 leukemia in mice, treatment QD at days 1-9 (National Cancer Institute screen); format: in vivo; conditions: for 5 ILS* (increased life span) / 60 DAY "CURES" / SURVIAL TIME MEDIAN: QD days 1-9, P388 mice; for SURVIAL TIME MEDIAN: controls 10 days; for activity compared with Dactinomycin (summary of Table I): P388 leukemia mice
Excerpt: as §1
P 388 LEUKEMIA : QD AT DAYS 1-9 TREATMENT

[7] = Toxicity per mg compared with Actinomicin D
[8] = test system: advanced Ridgeway osteogenic sarcoma; assay: Drug-induced regression of advanced Ridgeway osteogenic sarcoma in mice; format: in vivo
Experimental: A sample of Azetomicin I was tested on mice infected with advanced Ridgeway osteogenic sarcoma. […] Data supplied by Dr. F. Schabel and his coworkers at Southern Research Institute has been collected in Table II below, with the results from Azetomicin I testing also noted: […]

[9] = schedule day 12, data of Southern Research Institute
[10] = schedule day 12, Azetomicin I testing

CNNCc1ccc(C(=O)NC(C)C)cc1 [PROCARBAZINE]
"CURES" (Number/Total) ([1]; schedule days 12-20): 0/10
REGRESSION 50+%-PARTIAL (Number/Total) ([1]; schedule days 12-20): 0/10
REGRESSION COMPLETE (Number/Total) ([1]; schedule days 12-20): 0/10

S=P(N1CC1)(N1CC1)N1CC1 [THIO-TEPA]
"CURES" (Number/Total) [1, 9]: 0/10
REGRESSION 50+%-PARTIAL (Number/Total) [1, 9]: 0/10
REGRESSION COMPLETE (Number/Total) [1, 9]: 0/10

Cc1c2oc3c(C)ccc(C(=O)NC4C(=O)NC(C(C)C)C(=O)N5CCC5C(=O)N(C)CC(=O)N(C)C(C(C)C)C(=O)OC4C)c3nc-2c(C(=O)NC2C(=O)NC(C(C)C)C(=O)N3CCC3C(=O)N(C)CC(=O)N(C)C(C(C)C)C(=O)OC2C)c(N)c1=O (centres unmarked) [AZETOMICIN-II, Azetomicin II] (I: TV[Aze][Sar][NMeV] / II: TV[Aze][Sar][NMeV]; ester I:1-I:C, II:1-II:C; linker I:N-II:N via Actinocin(9to1); configuration not given here)
decrease of development of visible tumors [2]: over 80%
5 ILS* (increased life span) [3]: 150%
60 DAY "CURES" [3]: 0
SURVIAL TIME MEDIAN [3]: 25 days
activity against bacterial growth relative to Actinomicin D [4]: 50%
time stable after storage in aqueous solution [5]: at least 5 days
5 ILS* (increased life span) ([6]; 0.05 Mg/Kg/Inj.): 125%
60 DAY "CURES" ([6]; 0.05 Mg/Kg/Inj.): 0%
SURVIAL TIME MEDIAN ([6]; 0.05 Mg/Kg/Inj.): 22.5 days
5 ILS* (increased life span) ([6]; 0.1 Mg/Kg/Inj.): 130%
60 DAY "CURES" ([6]; 0.1 Mg/Kg/Inj.): 12%
SURVIAL TIME MEDIAN ([6]; 0.1 Mg/Kg/Inj.): 23 days
activity compared with Dactinomycin (summary of Table I) [6]: roughly comparable in activity to Dactinomycin
toxicity/mg. compared with Actinomicin D [7]: substantially less toxic/mg.

N[C@@H](Cc1ccc(N(CCCl)CCCl)cc1)C(=O)O [L-SARCOLYSIN]
"CURES" (Number/Total) [1, 9]: 4/8
REGRESSION 50+%-PARTIAL (Number/Total) [1, 9]: 8/8
REGRESSION COMPLETE (Number/Total) [1, 9]: 7/8

CN(C)/N=N/c1[nH]cnc1C(N)=O [DTIC]
"CURES" (Number/Total) [1, 9]: 0/10
REGRESSION 50+%-PARTIAL (Number/Total) [1, 9]: 0/10
REGRESSION COMPLETE (Number/Total) [1, 9]: 0/10

L-ASPARAGINASE
"CURES" (Number/Total) [1, 9]: 0/10
REGRESSION 50+%-PARTIAL (Number/Total) [1, 9]: 0/10
REGRESSION COMPLETE (Number/Total) [1, 9]: 0/10

S=c1nc[nH]c2nc[nH]c12 [MERCAPTOPURINE]
"CURES" (Number/Total) ([1]; schedule days 12-22): 0/10
REGRESSION 50+%-PARTIAL (Number/Total) ([1]; schedule days 12-22): 9/10
REGRESSION COMPLETE (Number/Total) ([1]; schedule days 12-22): 6/10

O=NN(CCCl)C(=O)NC1CCCCC1 [CCNU]
"CURES" (Number/Total) [1, 9]: 0/8
REGRESSION 50+%-PARTIAL (Number/Total) [1, 9]: 0/8
REGRESSION COMPLETE (Number/Total) [1, 9]: 0/8

Azetomicin I [AZETOMICIN-I]
decrease of development of visible tumors [2]: over 80%
5 ILS* (increased life span) [3]: 270%
60 DAY "CURES" [3]: 0
SURVIAL TIME MEDIAN [3]: 37 days
activity against bacterial growth relative to Actinomicin D [4]: 70%
time stable after storage in aqueous solution [5]: at least 5 days
5 ILS* (increased life span) ([6]; 0.05 Mg/Kg/Inj.): 150%
60 DAY "CURES" ([6]; 0.05 Mg/Kg/Inj.): 0%
SURVIAL TIME MEDIAN ([6]; 0.05 Mg/Kg/Inj.): 25 days
5 ILS* (increased life span) ([6]; 0.1 Mg/Kg/Inj.): 155%
60 DAY "CURES" ([6]; 0.1 Mg/Kg/Inj.): 0%
SURVIAL TIME MEDIAN ([6]; 0.1 Mg/Kg/Inj.): 25.5 days
5 ILS* (increased life span) ([6]; 0.2 Mg/Kg/Inj.): ≥ 500%
60 DAY "CURES" ([6]; 0.2 Mg/Kg/Inj.): 60%
SURVIAL TIME MEDIAN ([6]; 0.2 Mg/Kg/Inj.): ≥ 60 days
activity compared with Dactinomycin (summary of Table I) [6]: clearly greater activity than both
toxicity/mg. compared with Actinomicin D [7]: substantially less toxic/mg.
animals with complete regression ([8]; of 10 animals treated, 12th day only injection schedule): 10 animals
"CURES" (Number/Total) [8, 10]: 10/10
REGRESSION 50+%-PARTIAL (Number/Total) [8, 10]: 10/10
REGRESSION COMPLETE (Number/Total) [8, 10]: 10/10

CO[C@@]12[C@H](COC(N)=O)C3=C(C(=O)C(C)=C(N)C3=O)N1C[C@@H]1N[C@@H]12 [MITOMYCIN-C]
"CURES" (Number/Total) [1, 9]: 0/10
REGRESSION 50+%-PARTIAL (Number/Total) [1, 9]: 0/10
REGRESSION COMPLETE (Number/Total) [1, 9]: 0/10

Nc1ccn([C@@H]2O[C@H](CO)[C@@H](O)[C@@H]2O)c(=O)n1 [ARA-C]
"CURES" (Number/Total) ([1]; schedule days 12,12,20(q3h)): 0/10
REGRESSION 50+%-PARTIAL (Number/Total) ([1]; schedule days 12,12,20(q3h)): 7/10
REGRESSION COMPLETE (Number/Total) ([1]; schedule days 12,12,20(q3h)): 3/10

C[C@]12C=CC(=O)C=C1CC[C@@H]1[C@@H]2C(=O)C[C@@]2(C)[C@H]1CC[C@]2(O)C(=O)CO [PREDNISONE]
"CURES" (Number/Total) ([1]; schedule days 12,16,20): 0/10
REGRESSION 50+%-PARTIAL (Number/Total) ([1]; schedule days 12,16,20): 0/10
REGRESSION COMPLETE (Number/Total) ([1]; schedule days 12,16,20): 0/10
